Experimental findings from patent US12338229B2, “Small molecule stimulators of steroid receptor coactivator-3 and methods of their use as cardioprotective and/or vascular regenerative agents” (BAYLOR COLLEGE OF MEDICINE, priority 2018, dated 2025) are described below.

Values joined by “and” are separate entries in the source; they are usually repeats but may differ in a detail not shown here. Equal entries are not always repeated.

The subject of the test is mice after myocardial infarction. In words: Myocardial infarction model, permanent LAD ligation (echocardiography, histology, immunostaining, PET, EM). It counts as in vivo, ICR (CD1) mice. As for the experimental part: Model of heart failure in adult mice. To induce myocardial infarction (MI) in 8- to 10-week-old mice, the left anterior descending (LAD) artery was permanently ligated. Briefly, mice were anesthetized with 2% isoflurane and then intubated. The heart was exposed by performing a thoracotomy through the fourth or fifth intercostal space and an 8-0 nylon suture was tied around the LAD artery. 10 uls of Adenoviral SRC-3 (Ad-SRC-3) or adenoviral GFP (Ad-GFP) at a titre of 9×10^9 pfu/ml was injected into the anterior free wall near left ventricular descending coronary artery. To assess cell cycle entry, the analog 5-ethynyl-2′-deoxyuridine (EdU; 0.2 g/L, Santa Cruz, SC-284628A) was added to the drinking water for the 9 day duration of the experiment. Cell proliferation was measured using Click-iT EdU kit (Invitrogen, C10339). The initial dose of MCB-613 was administered intraperitoneally at 20 mg/kg 2 hours after surgery. Subsequent injections of the same dose were given for 6 additional days, and then repeated doses were given for 3 days at week 9 and week 16. Mice were harvested at indicated time points for analyses.
Echocardiography. Cardiac function was determined by echocardiography (VisualSonics, Vevo 2100, 40 Mhz-550S probe). After alignment in the transverse B-mode with the papillary muscles, cardiac function was measured on M-mode images.
Histological analysis. Whole hearts were fixed with 10% formalin, embedded in paraffin, and sectioned at 7 μm intervals. Each slide had […], which started at the apex and ended at the suture ligation site (approximately 30-50 slides). Sections at the papillary level (slides 20-30) were stained with Picrosirius red to identify areas of fibrosis. Infarct size was determined using a length-based approach.
Immunostaining analysis. Immunohistochemistry and immunofluorescent staining experiments were performed on FFPE (formalin-fixed and paraffin-embedded sections). TUNEL staining to detect apoptotic cells was done using the DeadEnd™ Fluorometric TUNEL System manufacturer's protocol (Promega, GS3250).
Model of heart failure in adult mice. To induce MI in eight- to ten-week-old mice, the left anterior descending (LAD) artery was permanently ligated. Briefly, mice were anesthetized with 2% isoflurane and then intubated. The heart was exposed by performing a thoracotomy through the fourth or fifth intercostal space and an 8-0 nylon suture was tied around the LAD. The initial dose of MCB-613 was administered intraperitoneally at 20 mg/kg, two hours after surgery. Subsequent injection at the same time of the day and same dose were given for six additional days, and then repeated doses were given for three days at week nine and week 16. Mice were harvested at the indicated time points for analyses.
Echocardiography. Cardiac function was determined by echocardiography (VisualSonics, Vevo 2100, 40 Mhz-550S probe). After alignment in the transverse B-mode with the papillary muscles, cardiac function was measured on M-mode images. Animal numbers for cardiac function in FIG. 11A are Day 0 control (17); MCB-613 (15), Day 1 control (10); MCB-613 (12), Day 14 […], Day 56 control (12); MCB-613 (15), Day 70 control (8); MCB-613 (10), Day 80 control (8); MCB-613 (11), Day 133 control (3); and MCB-613 (3).
Histological analysis. Whole hearts were fixed with 10% formalin, embedded in paraffin, and sectioned at 7 μm intervals. Each slide had three (3) to ten (10) sections, which started at the apex and ended at the suture ligation site (approximately 30-50 slides). Sections at the papillary level (slides 20-30) were stained with Picrosirius red to identify areas of fibrosis. Infarct size was determined using a length-based approach. TUNEL staining to detect apoptotic cells was performed using the DeadEnd™ Fluorometric TUNEL System (Promega, GS3250).
Electron Microscopy. […]

Turning to `CCC1C/C(=C\c2cccnc2)C(=O)/C(=C/c2cccnc2)C1` (centres unmarked) [MCB-613], the “18F-FDG uptake in infarct zone (cardiac PET)” value (2 weeks post-MI) is reported as “Improved ^18F-FDG uptake in the infarct zone”. For the same compound, the “infarct size vs saline control” value (10 weeks post-MI, picrosirius red) is given as “decrease in infarct size”. Further, the “heart weight (vs tibia length), cardiomegaly” value (12 weeks post-MI) is “attenuated the MI-induced cardiomegaly compensatory response”. Further, the “cardiomyocyte size and fibrosis in infarct border zone” value (12 weeks post-MI, Picrosirius red) was “cardiomyocytes were smaller and associated with less fibrosis in the infarct border zone”. The “infarct size (Picrosirius red, % length)” value (12 weeks post-MI, individual hearts, control 31% and 44%) is 3% and 14% and 20% and 22%. In addition, the “apoptosis (TUNEL)” value (24 hours post-MI) is reported as “prevents apoptosis”. Moreover, the average ejection fraction (24 hours post-MI, 20 mg/kg ip two hours post-MI, control 30%) is reported as 43%. For the setting “24 hours post-MI, vs control”, the “LYZ1 granule expression in myocardium” value is “LYZ1 granule expression was significantly increased”. Further, under “72 hours post-MI”, the “myofibrillar and mitochondrial structure (electron micrographs)” value was “prevent disorganization of myofibrillar structure and abnormal mitochondrial cristal architecture”. Besides, the ejection fraction maintained entry (from 24 hours until 19 weeks post-MI, 20 mg/kg ip 2 h post-MI and six additional days) is “above 40%”. For the same compound, the “angiogenesis in infarct border zone (CD31 immunostain)” value (three days post-MI, treated two hours post-MI) was “Increased angiogenesis was observed in the infarct border zone”.
